In US12371453B2, “Polypeptide having antibacterial activity, composition for preventing or treating sepsis comprising same, and antibacterial composition” (priority 2019, dated 2025):
Square brackets hold non-standard residues; d marks the D form. Ends that are not written are not given here. Peptide text beside a SMILES is read from it.

Tests used:
[1] = tested on: Colistin resistant AB (Acinetobactor baumannii)
Protocol: (§1) The antibacterial activity was evaluated according to an antibacterial activity test method for measuring the minimum inhibitory concentration 50 (MIC50; the minimal concentration that kills 50% of bacteria).
(§2) More specifically, 100 μL of a medium was dispensed into each well of a 96-well plate, and in the first column, an antibiotic and a peptide in 200 μL of the medium were dispensed. 1/2 serial dilution was performed from columns 1 to 11 and five types of antibiotic-resistant bacteria (ESBL-resistant E. coli, carbapenem-resistant A. baumannii, carbapenem-resistant Klebsiella pneumoniae, carbapenem-resistant Pseudomonas aeruginosa, colistin-resistant Acinetobactor baumannii), which had been previously cultured, were diluted (OD600 nm value in dilution: approximately 0.0025) and dispensed into each well. The plate was incubated in a 37° C. incubator for 4 hours, and measured at OD600 nm.

CR-Klebsiella pneumoniae = conditions: CR-
Protocol: as §1, §2

ESBL (E. coli) = conditions: ESBL
Protocol: as §1, §2

[2] = tested on: Carbapenem resistant (CR)-Acinetobactor baumannii; test: organism not typed
Protocol: as §1, §2

[3] = LPS binding affinity by Isothermal Titration Calorimeter (ITC); set-up: species or system E. coli K1; conditions: for LPS binding affinity (in words): compared with FP1 (wild type, WT); for Kd: peptide binding to LPS, read-out: Kd (calculated by ITC)
Source text: FPT (ADK 44-54) is denoted by wild type (WT), and peptides in which a point mutation occurred at various sites in WT were manufactured (FP3, FP5, FP6, and FP9). To increase the interaction with LPS in a residue sequence of FP3, peptides were designed based on FP3- and LPS-binding models (FP12-NH2 and FP13-NH2), and peptides were designed by additionally introducing a non-natural amino acid and an amino acid isomer (allomeric D-type amino acid) (allD FP12-NH2, allD FP13-NH2, allD FP-13-9a, allD FP-13-9w, allD FP-13-9k, and allD FP13-NH2 (AcOH)). In addition, an N-terminus PEGylated peptide (PEG-alld FP13-NH2 (AcOH)) was additionally designed, synthesized, and provided by ANYGEN, Co. Ltd. The binding affinity between each of the provided peptides and lipopolysaccharide (LPS) was confirmed through measuring the binding affinity (Kd) using Isothermal Titration Calorimeter (ITC).
Specifically, a method of analyzing binding affinity (Kd) between a peptide and LPS is as follows.
Measurement was carried out using a Malvern MicroCal PEAQ-ITC cell instrument, and the following pretreatment was carried out to confirm interaction with LPS. The amount and morphology of a sample cell are 300 μL and coin-shaped, fixed-in-place, respectively; a syringe rotation rate was 1,200 rpm; and a temperature was 30° C., 35° C. or 25° C.
Before the experiment, LPS and the peptide were previously diluted with PBS, thereby preparing 2 mM LPS and 0.2 mM peptide. 300 μL of the peptide was added into cells in the ITC instrument, which had been washed, and 40 μL of LPS was put into a syringe. After measurement conditions for ITC (temperature, number of injections) were set, the syringe was inserted into the cell, and ITC measurement was started. When the measurement was completed, analysis is performed, and the Kd values of LPS and the peptide were calculated.

[4] = tested on: Acinetobacter baumannii (ATCC 19606); test: microbe, parasite or virus in culture; conditions: Acinetobacter baumannii ATCC 19606
Protocol: (§3) To compare the antibacterial activity between the four commercially available antibiotics (ampicillin, gentamicin, levofloxacin and imipenem) and the allD FP13-NH2 (AcOH) peptide, an antibacterial activity test was performed to measure the minimum inhibitory concentrations (MIC50 and MIC80) for gram-negative and gram-positive standard strains (Escherichia coli DH5α, Escherichia coli K1, Acinetobacter baumannii, Pseudomonas aeruginosa, Salmonella enteritidis, Salmonella typhimurium, and Klebsiella pneumoniae).
(§4) More specifically, 100 μL of a medium was dispensed into each well of a 96-well plate, and in the first column, an antibiotic and a peptide in 200 μL of the medium were dispensed. 1/2 serial dilution was performed from columns 1 to 11, and gram-negative and gram-positive bacteria which had been previously cultured were diluted (OD600 nm value in dilution: approximately 0.0025) and dispensed into each well. The plate was incubated in a 37° C. incubator for 4 hours, and measured at OD600 nm.

[5] = tested on: Escherichia coli DH5α (ATCC PTA-4750); test: microbe, parasite or virus in culture; conditions: Escherichia coli DH5α, 4 hours
Protocol: as §3, §4

[6] = tested on: Pseudomanas aeruginosa PAO1 (ATCC 47085D-5); test: microbe, parasite or virus in culture; conditions: Pseudomonas aeruginosa PAO1
Protocol: as §3, §4

[7] = tested on: Klebiella pneumoniae (ATCC 13883); test: microbe, parasite or virus in culture; conditions: Klebsiella pneumoniae ATCC 13883
Protocol: as §3, §4

[8] = tested on: Salmonela typhimurium (ATCC 53648); test: microbe, parasite or virus in culture; conditions: Salmonella typhimurium ATCC 53648
Protocol: as §3, §4

Escherichia coli K1 = test: microbe, parasite or virus in culture; conditions: Escherichia coli K1
Protocol: as §3, §4

[9] = tested on: Salmonela enteritidis (ATCC 13076); test: microbe, parasite or virus in culture; conditions: Salmonella enteritidis ATCC 13076
Protocol: as §3, §4

| Molecule | MIC50, Colistin resistant AB [1] | MIC50, CR-Klebsiella pneumoniae (CR-Klebsiella pneumoniae) | MIC50, ESBL (E. coli) (ESBL (E. coli)) | MIC50, Carbapenem resistant (CR)-Acinetobactor baumannii [2] | LPS binding affinity (in words) [3] | Kd [3] | other results |
| --- | --- | --- | --- | --- | --- | --- | --- |
| RLRVKLRRYLR [FP12] | <125 µg/mL | <62 µg/mL | <2 µg/mL | <16 µg/mL |  |  |  |
| CC(C)C[C@@H](NC(=O)[C@H](N)CCCNC(=N)N)C(=O)N[C@H](CCCNC(=N)N)C(=O)N[C@@H](C(=O)N[C@H](CCCCN)C(=O)N[C@H](CC(C)C)C(=O)N[C@H](CCCNC(=N)N)C(=O)N[C@H](CCCNC(=N)N)C(=O)N[C@H](Cc1c[nH]c2ccccc12)C(=O)N[C@H](CC(C)C)C(=O)N[C@H](CCCNC(=N)N)C(N)=O)C(C)C [allD FP21-NH2] (H-[dR][dL][dR][dV][dK][dL][dR][dR][dW][dL][dR]-NH2; N-terminus assumed) | <4 µg/mL | <4 µg/mL | <0.5 µg/mL | <1 µg/mL |  |  |  |
| KLRVKLRRYLR [FP13] | <62 µg/mL | <62 µg/mL | <2 µg/mL | <16 µg/mL |  |  |  |
| KLGVEALRYLD [FP9] |  |  |  |  | strong LPS binding affinity | 326 µM |  |
| klrvklrrklr-NH2 [allD FP-13-9k-NH2] |  |  |  |  | strong LPS binding affinity | 1.99 µM |  |
| gentamicin |  |  |  |  |  |  | MIC (μg/ml) 50% ([4]; 50% growth inhibition): <1.0 µg/mL; MIC (μg/ml) 80% ([4]; 80% growth inhibition): <2.0 µg/mL; MIC (μg/ml) 50% ([5]; 50% growth inhibition): <0.5 µg/mL; MIC (μg/ml) 80% ([5]; 80% growth inhibition): <1.0 µg/mL; MIC (μg/ml) 50% ([6]; 50% growth inhibition): <0.5 µg/mL; MIC (μg/ml) 80% ([6]; 80% growth inhibition): <1.0 µg/mL; MIC (μg/ml) 50% ([7]; 50% growth inhibition): <0.5 µg/mL; MIC (μg/ml) 80% ([7]; 80% growth inhibition): <1.0 µg/mL; MIC (μg/ml) 50% ([8]; 50% growth inhibition): <0.5 µg/mL; MIC (μg/ml) 80% ([8]; 80% growth inhibition): <1.0 µg/mL; MIC (μg/ml) 50% (Escherichia coli K1; 50% growth inhibition): <0.5 µg/mL; MIC (μg/ml) 80% (Escherichia coli K1; 80% growth inhibition): <1.0 µg/mL; MIC (μg/ml) 50% ([9]; 50% growth inhibition): <0.5 µg/mL; MIC (μg/ml) 80% ([9]; 80% growth inhibition): <1.0 µg/mL |
| PEG-KLRVKLRRYLR-NH2 [PEG-alld FP13-NH2 (AcOH)] |  |  |  |  |  | 17.5 µM |  |
| LRLGVEAKRYLR [FP5] |  |  |  |  | strong LPS binding affinity | 854 µM |  |
